The values that follow come from paper PMC12846068, “Insights into Transport Function of the Murine Organic Anion-Transporting Polypeptide OATP1B2 by Comparison with Its Rat and Human Orthologues” (Toxics, 2025).

Broadly, the IC50 is the midpoint of a concentration-inhibition curve. What is called Km is the substrate concentration at which the rate is half of its maximum.

Entries after “also recorded” stand apart in the source; their conditions may differ. Read-outs that look alike come from different tables or passages of the source.

Data set [1] addresses T1, hOATP1B3 (Homo sapiens, UniProt Q9NPD5).
T1 sequence (Q9NPD5 1-702): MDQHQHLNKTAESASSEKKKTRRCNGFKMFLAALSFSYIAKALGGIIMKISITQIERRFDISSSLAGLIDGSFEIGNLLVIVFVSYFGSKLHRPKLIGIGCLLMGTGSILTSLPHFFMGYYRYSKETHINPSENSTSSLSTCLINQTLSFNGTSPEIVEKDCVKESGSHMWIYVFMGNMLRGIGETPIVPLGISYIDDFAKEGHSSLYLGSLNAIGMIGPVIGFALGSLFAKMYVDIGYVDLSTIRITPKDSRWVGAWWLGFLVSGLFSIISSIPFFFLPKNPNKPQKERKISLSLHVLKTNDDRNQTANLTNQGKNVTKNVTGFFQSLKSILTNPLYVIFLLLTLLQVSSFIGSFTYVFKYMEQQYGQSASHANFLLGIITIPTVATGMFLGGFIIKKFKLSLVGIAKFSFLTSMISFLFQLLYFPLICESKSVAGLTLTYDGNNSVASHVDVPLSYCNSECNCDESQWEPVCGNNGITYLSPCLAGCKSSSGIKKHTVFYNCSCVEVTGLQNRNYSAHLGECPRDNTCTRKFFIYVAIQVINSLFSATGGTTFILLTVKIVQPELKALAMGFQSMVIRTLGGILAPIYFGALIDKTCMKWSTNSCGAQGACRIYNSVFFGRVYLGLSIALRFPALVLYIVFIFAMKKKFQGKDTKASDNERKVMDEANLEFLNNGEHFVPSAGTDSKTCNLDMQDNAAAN
To be noted: read-out: IC50 for OATP1B3; cited from earlier work.

For data set [2], the target named is T2, rOATP1B2 (Rattus norvegicus, UniProt Q9QZX8).
T2 construct: The full-length mOATP1B2 and rOATP1B2 consist of 689 and 678 amino acids
T2 sequence (Q9QZX8 1-687): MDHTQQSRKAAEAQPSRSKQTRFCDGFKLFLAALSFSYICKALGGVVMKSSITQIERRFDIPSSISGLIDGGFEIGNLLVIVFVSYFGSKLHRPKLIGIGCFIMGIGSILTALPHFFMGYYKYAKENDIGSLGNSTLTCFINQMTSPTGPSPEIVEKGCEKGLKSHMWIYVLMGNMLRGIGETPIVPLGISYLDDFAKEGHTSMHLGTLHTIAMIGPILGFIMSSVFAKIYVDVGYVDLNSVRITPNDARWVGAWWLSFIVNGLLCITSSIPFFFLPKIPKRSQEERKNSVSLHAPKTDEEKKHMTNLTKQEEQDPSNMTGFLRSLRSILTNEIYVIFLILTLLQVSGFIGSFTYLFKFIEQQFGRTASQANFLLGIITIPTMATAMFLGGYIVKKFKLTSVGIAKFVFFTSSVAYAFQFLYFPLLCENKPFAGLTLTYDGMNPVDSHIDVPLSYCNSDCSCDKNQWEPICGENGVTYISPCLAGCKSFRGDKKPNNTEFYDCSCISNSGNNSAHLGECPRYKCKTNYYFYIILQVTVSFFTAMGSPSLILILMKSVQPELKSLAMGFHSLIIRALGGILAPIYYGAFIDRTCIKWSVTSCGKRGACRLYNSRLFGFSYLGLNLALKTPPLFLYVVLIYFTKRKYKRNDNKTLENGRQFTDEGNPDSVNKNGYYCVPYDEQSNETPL
The experiment in a line: cis-inhibition of rOATP1B2-mediated E1S or TCA uptake in HEK293 cells. The data set is classed as cell-based.

In data set [3] the target is T3, hOATP1B1 (Homo sapiens, UniProt Q9Y6L6).
T3 sequence (Q9Y6L6 1-691): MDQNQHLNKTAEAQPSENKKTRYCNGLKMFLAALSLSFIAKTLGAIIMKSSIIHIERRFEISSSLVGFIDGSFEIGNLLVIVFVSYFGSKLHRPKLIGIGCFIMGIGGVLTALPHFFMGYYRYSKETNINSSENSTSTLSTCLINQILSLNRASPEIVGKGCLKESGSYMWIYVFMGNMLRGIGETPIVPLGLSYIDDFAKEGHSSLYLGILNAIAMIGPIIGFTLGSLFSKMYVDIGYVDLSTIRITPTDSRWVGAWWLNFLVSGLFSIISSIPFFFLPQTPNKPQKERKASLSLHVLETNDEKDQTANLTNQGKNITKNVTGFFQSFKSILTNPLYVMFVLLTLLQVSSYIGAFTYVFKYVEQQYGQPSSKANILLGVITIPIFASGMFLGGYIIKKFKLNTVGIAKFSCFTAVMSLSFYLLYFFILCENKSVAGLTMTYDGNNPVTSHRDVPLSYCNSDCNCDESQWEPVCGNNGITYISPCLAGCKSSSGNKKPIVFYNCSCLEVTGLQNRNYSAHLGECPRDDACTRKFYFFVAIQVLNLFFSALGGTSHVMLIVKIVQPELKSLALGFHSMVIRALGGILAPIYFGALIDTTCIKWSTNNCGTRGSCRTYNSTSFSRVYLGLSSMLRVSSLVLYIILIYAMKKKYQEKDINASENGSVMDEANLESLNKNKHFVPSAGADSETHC
To be noted: read-out: IC50 for hOATP1B1, cited from earlier work.

Data set [4] has as its target T2, rOATP1B2. Also on record: method as in Ishida et al. (2018) [9]. To be noted: ref Ishida et al. (2018) [9]; read-out: Km, rOATP1B2-mediated uptake; cited from earlier work.
Data set [5] concerns the target T3, hOATP1B1. Details: expressed in transfected cells; host or cells: HEK-293, stably transfected. To be noted: read-out: Km as substrate of hOATP1B1; cited from earlier work.
The target of data set [6] is T1, hOATP1B3. Also on record: expressed in transfected cells; host or cells: HEK-293, stably transfected. As to conditions: read-out: Km as substrate of hOATP1B3; cited from earlier work.
The mark [7] stands for this setting: HEK293, 10 µM drug, 1 µM [3H]-E1S, 1 min, read-out: Inhibitory effect on rOATP1B2-mediated E1S uptake.
The mark [8] stands for this setting: HEK293, read-out: Inhibitory effect on rOATP1B2-mediated TCA uptake, 10 µM drug, 1 µM [3H]-TCA, 1 min.
[9] abbreviates: HEK293, read-out: Inhibitory effect on rOATP1B2-mediated substrate uptake (summary over E1S and TCA), 10 µM drug, substrates E1S and TCA not separated.

For `CC(C)CN(C[C@@H](O)[C@H](Cc1ccccc1)NC(=O)O[C@H]1CCOC1)S(=O)(=O)c1ccc(N)cc1` [Amprenavir, amprenavir], the IC50 in data set [1] is 19.1 µM; in data set [3] (ref Karlgren et al. (2012) [21]) it was 16.8 µM. Further, the inhibition at 10 µM in data set [2] (setting [7]) was 21%; in data set [2] (setting [8]), 27%; in data set [2] (setting [9]), < 50%.

As to `CC(=O)N1CCN(c2ccc(OCC3COC(Cn4ccnc4)(c4ccc(Cl)cc4Cl)O3)cc2)CC1` (stereo not shown) [Ketoconazole, ketoconazole], the inhibition at 10 µM in data set [2] (setting [7]) was 34%; in data set [2] (setting [8]), 19%; in data set [2] (setting [9]) it was < 50%. The IC50 in data set [3] (estradiol-17β-glucuronide as substrate) was 1.8 µM.

In the case of `CO[C@H]1/C=C/O[C@@]2(C)Oc3c(C)c(O)c4c(O)c(c(/C=N/N5CCN(C)CC5)c(O)c4c3C2=O)NC(=O)/C(C)=C\C=C\[C@H](C)[C@H](O)[C@@H](C)[C@@H](O)[C@@H](C)[C@H](OC(C)=O)[C@@H]1C` [Rifampicin, rifampicin], the half-inhibitory concentration (IC50) is 1.1 µM in data set [2] (1 µM [3H]-E1S, 1 min, read-out: IC50, rOATP1B2-mediated E1S uptake) and 2.4 µM in data set [2] (IC50, rOATP1B2-mediated TCA uptake, 1 µM [3H]-TCA, 1 min). Further, the “fold difference of IC50 between mOATP1B2 and rOATP1B2 (stronger inhibition of rOATP1B2)” value in data set [2] (E1S uptake) was determined as 8.7 fold. Moreover, the values for the inhibition at 10 µM in data set [2] (setting [7]) and in data set [2] (setting [8]) were 93% and 83%, respectively. Moreover, the “fold difference of IC50 between mOATP1B2 and rOATP1B2” value in data set [2] (TCA uptake) turned out to be 3.2 fold.

As to `CC(C)c1nc(N(C)S(C)(=O)=O)nc(-c2ccc(F)cc2)c1/C=C/[C@@H](O)C[C@@H](O)CC(=O)O` [Rosuvastatin, rosuvastatin], the results for the Km in data set [4], in data set [5] and in data set [6] were 28.1 µM, 0.8 µM and 14.2 µM, respectively. The inhibition at 10 µM is 73% in data set [2] (setting [7]), 69% in data set [2] (setting [8]) and ≥ 50% in data set [2] (setting [9]).

On to `CCCCC1(CCCC)CN(c2ccccc2)c2cc(SC)c(OCC(=O)N[C@@H](C(=O)N[C@@H](CC)C(=O)O)c3ccc(O)cc3)cc2S(=O)(=O)N1` [Odevixibat, odevixibat], for which the inhibition at 10 µM is 82% in data set [2] (setting [7]), 74% in data set [2] (setting [8]) and 54 to 82% in data set [2] (setting [9]).

Take `Clc1ccccc1C(c1ccccc1)(c1ccccc1)n1ccnc1` [Clotrimazole, clotrimazole]: the “Inhibitory effect on rOATP1B2-mediated substrate uptake (summary over E1S and TCA)” value in data set [2] (10 µM drug, substrates E1S and TCA not separated) is recorded as “no inhibitory properties; also recorded: did not inhibit”. Further, the inhibition at 10 µM in data set [2] (setting [7]) and in data set [2] (setting [8]) was -10% throughout. Also, the IC50 in data set [3] is 9 µM.
